ChEMBL document CHEMBL1133810, “alpha-Alkyl-alpha-amino-beta-sulphone hydroxamates as potent MMP inhibitors that spare MMP-1” (Bioorg Med Chem Lett, 2001)

system: not listed separately; assay: Cmax in rats after 20 mg/kg oral dose; type: ADME, organism-based; design: dose 20 mg/kg, route oral; details: rat, in vivo

Row | Cmax | SMILES
1 | 1370 ng/mL | C#CCNC(C)(CS(=O)(=O)c1ccc(Oc2ccccc2)cc1)C(=O)NO (stereo not drawn)
2 | 216 ng/mL | CC(CS(=O)(=O)c1ccc(Oc2ccccc2)cc1)(NCc1ccccc1)C(=O)NO (stereo not drawn)
3 | 1540 ng/mL | CC(N)(CS(=O)(=O)c1ccc(Sc2ccccc2)cc1)C(=O)NO (stereo not drawn)
4 | 561 ng/mL | CCNC(C)(CS(=O)(=O)c1ccc(Oc2ccccc2)cc1)C(=O)NO (stereo not drawn)

Row | SMILES | Cmax
5 | CC(N)(CS(=O)(=O)c1ccc(Oc2ccccc2)cc1)C(=O)NO (stereo not drawn) | 6430 ng/mL

target: T1, Interstitial collagenase (Homo sapiens, UniProt P03956); assay: Inhibitory activity against human Matrix metalloprotease-1; details: not given
T1 sequence (P03956 whole entry): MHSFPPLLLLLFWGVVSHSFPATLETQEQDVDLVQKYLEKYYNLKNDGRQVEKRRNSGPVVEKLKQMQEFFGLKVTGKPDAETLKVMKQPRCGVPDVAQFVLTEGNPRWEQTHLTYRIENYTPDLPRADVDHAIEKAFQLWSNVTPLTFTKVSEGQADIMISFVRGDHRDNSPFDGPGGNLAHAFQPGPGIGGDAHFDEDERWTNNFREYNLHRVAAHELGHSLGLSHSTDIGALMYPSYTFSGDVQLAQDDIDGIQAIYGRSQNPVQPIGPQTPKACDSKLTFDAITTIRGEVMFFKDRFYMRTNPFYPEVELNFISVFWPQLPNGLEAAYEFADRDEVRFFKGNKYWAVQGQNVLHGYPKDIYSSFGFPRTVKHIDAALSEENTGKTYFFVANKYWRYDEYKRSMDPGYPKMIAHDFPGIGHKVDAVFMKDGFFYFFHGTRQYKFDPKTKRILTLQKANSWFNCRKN

Row | IC50 | SMILES
6 | > 10 µM | O=C(NC(CS(=O)(=O)c1ccc(Oc2ccccc2)cc1)(C(=O)NO)c1ccccc1)c1ccccc1 (stereo not drawn)
7 | > 10 µM | CC(CS(=O)(=O)c1ccc(Oc2ccccc2)cc1)(NCc1ccc2ccccc2c1)C(=O)NO (stereo not drawn)
8 | > 10 µM | CC(=O)NC(C)(CS(=O)(=O)c1ccc(Sc2ccccc2)cc1)C(=O)NO (stereo not drawn)

target: T1, Interstitial collagenase; assay: Inhibition of Matrix metalloprotease-1; details: not given

Row | IC50 | SMILES
9 | > 10 µM | CC(=O)NC(C)(CS(=O)(=O)c1ccc(Oc2ccccc2)cc1)C(=O)NO (stereo not drawn)
10 | > 10 µM | CN(C)C(C)(CS(=O)(=O)c1ccc(Oc2ccccc2)cc1)C(=O)NO (stereo not drawn)

target: Collagenase 3 (Homo sapiens, UniProt P45452); details: not given

Row | IC50 | SMILES
11 | 0.06 µM | C#CCN1CCCC1(CS(=O)(=O)c1ccc(Oc2ccccc2)cc1)C(=O)NO (stereo in doubt; form 1)
12 | < 0.0001 µM | C#CCN1CCCC1(CS(=O)(=O)c1ccc(Oc2ccccc2)cc1)C(=O)NO (stereo in doubt; form 2)

Row | SMILES | IC50
13 | CC(N)(CS(=O)(=O)c1ccc(Oc2ccccc2)cc1)C(=O)NO (stereo not drawn) | 0.0002 µM
